Measured values: US6573382B2, “Polymorphic forms of 6-[4-(1-cyclohexyl-1H-tetrazol-5-yl)butoxy]-3,4-dihydro-2(1H)-quinolinone” (priority 2001, dated 2003)

Legend:
[1] = DSC thermogram of combined Forms A, B and C (melting points compared, solubility inferred); assay type: physicochemical; details: 10° C. per minute, nitrogen purge, FIG. 8
Protocol: DSC data were generated using a Mettler-Toledo DSC 821^e (Columbus, Ohio) with a Julabo FT900 intercooler chiller (Julabo Company; Allentown, Pa.). In general, samples were analyzed in a vented, sealed aluminum pan. Because the endothermic peak may vary depending upon the rate of heating and the calibration and precision of the instrument, with the amount of peak variation dependent upon the heating rate used, all thermograms included herein were run under the same, consistent conditions: heating at 10° C. per minute under a nitrogen purge at 40 mL/minute.
FIG. 8 illustrates a DSC thermogram for the combination of Form A, Form B and Form C having a second heating cycle with a maximum temperature of about 110° C. with a holding time of about 30 minutes. The peaks in the third heating cycle show a Form A to Form B to Form C peak area ratio of approximately 8:2:1, respectively, with the relative amount of Form A, Form B and Form C further variable on the heat of enthalpy of each polymorphic form.

[2] = DSC reheating of disturbed (scratched/stressed) sample: solid state phase transformation to Form A; assay type: physicochemical; details: DSC heating from 30° C. to approximately 200° C. at 10° C. per minute
Protocol: DSC data were generated using a Mettler-Toledo DSC 821^e (Columbus, Ohio) with a Julabo FT900 intercooler chiller (Julabo Company; Allentown, Pa.). In general, samples were analyzed in a vented, sealed aluminum pan. Because the endothermic peak may vary depending upon the rate of heating and the calibration and precision of the instrument, with the amount of peak variation dependent upon the heating rate used, all thermograms included herein were run under the same, consistent conditions: heating at 10° C. per minute under a nitrogen purge at 40 mL/minute. The resultant sample of Example 1A was disturbed with scratching, which caused the cilostazol sample to undergo a solid state phase transformation at approximately 119° C. followed by an endotherm of melt at approximately 160° C. (Form A) during heating by DSC from 30° C. to approximately 200° C. at 10° C. per minute. When the sample is stressed and reheated (as detailed in Example 2A), the sample undergoes a solid state phase transformation at approximately 147° C. followed by an endotherm of melt at about 160° C. (Form A) during heating by DSC from 30° C. to approximately 200° C. at 10° C. per minute. This disturbance of sample is believed to induce nucleation which preferentially causes Form A of cilostazol to form upon heating.

[3] = stability of the crystalline form; assay type: physicochemical
[4] = aqueous solubility of the polymorphic form; assay type: physicochemical; details: Form A as prepared by the procedures of the '479 patent
[5] = bioavailability of the polymorphic form; details: Form A as prepared by the procedures of the '479 patent

Compound | solubility relative to Form A, suggested by lower melting point in DSC [1] | temperature of solid state phase transformation to Form A [2] | stability of the polymorphic form [3] | aqueous solubility [4] | bioavailability [5]
O=C1CCc2cc(OCCCCc3nnnn3C3CCCCC3)ccc2N1 [Form C, 6-[4-(1-cyclohexyl-1H-tetrazol-5-yl)butoxy]-3,4-dihydro-2(1H)-quinolinone] | more soluble than Form A | approximately 147 °C | stable | – | –
O=C1CCc2cc(OCCCCc3nnnn3C3CCCCC3)ccc2N1 [Form B, 6-[4-(1-cyclohexyl-1H-tetrazol-5-yl)butoxy]-3,4-dihydro-2(1H)-quinolinone] | more soluble than Form A | approximately 119 °C | stable | – | –
O=C1CCc2cc(OCCCCc3nnnn3C3CCCCC3)ccc2N1 [Form A, 6-[4-(1-cyclohexyl-1H-tetrazol-5-yl)butoxy]-3,4-dihydro-2(1H)-quinolinone] | – | – | – | low aqueous solubility | low bioavailability
